Experiments:
[1] = target: T1, Glutamate NMDA receptor (Rattus norvegicus) (UniProt P35439+Q00959+Q00960+Q00961+Q62645+Q8VHN2+Q9R1M7); test: Displacement of [3H]glycine from NMDA receptor of rat cortical membranes; format: cell membranes; design: concentration or dose not given beside the values; details: Membrane, concentration not given here
[2] = target: T1, Glutamate NMDA receptor (Rattus norvegicus); test: Compound was evaluated for its ability to displace [3H]-glycine from rat cortical membranes at concentration 10 uM for NMDA receptor
Glutamate NMDA receptor = test: Displacement of [3H]-glycine from NMDA receptor of rat cortical membranes; format: cell membranes, Membrane
[3] = target: Glutamate receptor ionotropic, AMPA (Rattus norvegicus) (UniProt P19491+P19492+P19493+P19490); test: Displacement of [3H]AMPA from AMPA receptor of rat cortical membranes; format: cell membranes; design: concentration or dose not given beside the values; details: Membrane, concentration not given here

Row | inhibition [1] [%] | IC50 (Glutamate NMDA receptor) [nM] | inhibition [3] [%] | SMILES | also measured
1 | 43 |  |  | O=C(O)/C=C/c1c(O)c(O)nc2ccccc12 | 
2 |  |  |  | CCOC(=O)c1c(OC)c(O)nc2cc(Cl)cc(Cl)c12 | inhibition [2]: 5%
3 | 0 |  |  | COc1ccc(NC(=O)c2c(O)c(O)nc3ccccc23)cc1OC | 
4 | 25 |  |  | O=C(O)CCc1c(O)c(O)nc2ccccc12 | 
5 |  | 12000 |  | CCOC(=O)C(=O)c1c(O)c(O)nc2ccccc12 | 
6 |  | 1400 |  | Oc1nc2ccccc2c(Cl)c1O | 
7 |  | 150 | 28 | COC(=O)C(=O)c1c(O)c(O)nc2cc(Cl)cc(Cl)c12 | 
8 |  | 3800 | 15 | CNC(=O)C(=O)c1c(O)c(O)nc2cc(Cl)cc(Cl)c12 | 
9 | 23 |  |  | Oc1nc2ccc(Cl)c(Cl)c2c(Br)c1O | 
10 |  | 760 | 40 | O=C(Nc1ccccc1)C(=O)c1c(O)c(O)nc2cc(Cl)cc(Cl)c12 | 
11 |  | 3000 | 2.6 | COC(=O)C(=O)c1c(O)c(O)nc2ccccc12 | 
12 |  | 4500 | 48 | Oc1nc2cc(Cl)cc(Cl)c2c(Cl)c1O | 
13 | 60 |  |  | O=C(O)c1c(O)c(O)nc2ccccc12 | 
14 |  | 2800 | 41 | Oc1nc2cc(Cl)cc(Cl)c2c(Br)c1O | 
15 | 29 |  |  | O=c1[nH]c2ccccc2cc1O | 
16 | 20 |  |  | Oc1nc2ccc(Cl)c(Cl)c2c(Cl)c1O | 
17 |  |  |  | CCOC(=O)c1c(OC)c(O)nc2ccccc12 | inhibition [2]: 0%
18 |  | 29 | 56 | CCOC(=O)C(=O)c1c(O)c(O)nc2cc(Cl)cc(Cl)c12 | 
19 | 43 |  |  | CCOC(=O)c1c(O)c(O)nc2cc(Cl)c(Cl)cc12 | 
20 | 50 |  |  | CCOC(=O)c1c(O)c(O)nc2ccccc12 | 
21 | 29 |  |  | Oc1cc2c(Cl)cc(Cl)cc2nc1O | 
22 | 38 |  |  | CCOC(=O)c1c(O)c(O)nc2ccc(Cl)c(Cl)c12 | 
23 | 0 |  |  | Oc1cc2c(Cl)c(Cl)ccc2nc1O | 
24 |  | 1800 | 31.9 | O=C(O)C(=O)c1c(O)c(O)nc2ccccc12 | 
25 | 11 |  |  | CCOC(=O)/C=C/c1c(O)c(O)nc2ccccc12 | 
26 |  |  |  | CCOC(=O)c1c(OC)c(O)nc2cc(Cl)c(Cl)cc12 | inhibition [2]: 0%
27 |  | 62 |  | CCOC(=O)c1c(O)c(O)nc2cc(Cl)cc(Cl)c12 | 
28 | 40 |  |  | O=C(NCc1ccccc1)c1c(O)c(O)nc2ccccc12 | 
29 |  | 520 | 63 | O=C(O)C(=O)c1c(O)c(O)nc2cc(Cl)cc(Cl)c12 | 

Row | SMILES | inhibition [1] [%] | IC50 (Glutamate NMDA receptor) [nM] | inhibition [3] [%] | also measured
30 | Oc1nc2ccccc2c(Br)c1O | 59 |  |  | 
